Laboratory results taken from ChEMBL document CHEMBL1136097, “Synthesis of the first examples of A-C8/C-C2 amide-Linked pyrrolo[2,1-c][1,4]benzodiazepine dimers” (Bioorg Med Chem Lett, 2003).

Columns and labels:
[1] = In vitro inhibitory activity against human tumor cell line CHI; assay type: functional
[2] = test system: A2780cisR; assay: In vitro inhibitory activity against human tumor cell line A2780cis; assay type: functional, cell-based
[3] = In vitro inhibitory activity against human tumor cell line CHIcis; assay type: functional
[4] = test system: SK-OV-3; assay: In vitro inhibitory activity against human tumor cell line SKOV-3; assay type: functional, cell-based
[5] = test system: A2780; assay: In vitro inhibitory activity against human tumor cell line A2780; assay type: functional, cell-based

Measured: IC50

COc1cc2c(cc1OC)C(=O)N1C=C(CC(=O)Nc3ccc4c(c3)N=C[C@@H]3CCCN3C4=O)C[C@H]1C=N2
> 25 µM: all assays above
